One assay concerns the target IKZF1 protein (Homo sapiens (Human), UniProt Q13422+Q96SW2). Put plainly: Western-blot assay of substrate protein degradation in hPBMC, IKZF1. Type of assay: cell-based. As to conditions: hPBMC cells, compound 500 nM, 24 hours, Western blot. How it is done:
(§1) After treating the cells with the compounds for 24 hours, the cells were collected and lysed using RIPA protein lysate containing phosphatase inhibitors. The lysate was then placed on ice for 30-60 minutes and centrifuged. The supernatant was aspirated as the extracted total cell protein. The protein concentration of the supernatant was determined using the conventional BCA (Bicinchoninic Acid) assay. The supernatant was then mixed with 4×SDS sample loading buffer, denatured at 95° C. for 5 minutes, and then subjected to SDS-PAGE electrophoresis on a polyacrylamide gel, followed by transfer to a nitrocellulose membrane (NC membrane). The membrane was blocked with blocking buffer at room temperature for 1-2 hours, and then antibody incubation and detection were carried out according to the antibody instructions provided by Cell Signaling Technology.
(§2) Half-Maximal Degradation Concentration value (the drug concentration required for degrading proteins by 50%, abbreviated as DC50) reads method: comparing the gray values of the Western blotting bands for the drug treatment with the gray values of the Western blotting band for the DMSO control, and reading the drug concentration range corresponding to the gray value of the Western blotting bands for the drug treatment which is equal to half of the gray value of the Western blotting band for the DMSO control.
(§3) DC50 value could also be calculated as follows: using software ImageJ to quantify the gray values of the Western blotting bands for the drug treatment, fitting the relationship curve between drug concentrations and gray values, and from the fitted curve, calculating the drug concentration corresponding to half of the gray value of the Western blotting band for the DMSO control.
A general note: Immunoblotting shows a protein as a band on a membrane.

A further assay has as its target GSPT1 protein (Homo sapiens (Human), UniProt P15170+Q96SW2). Put plainly: Western-blot assay of substrate protein degradation in hPBMC, GSPT1. Type of assay: cell-based. As to conditions: hPBMC cells, compound 500 nM, 24 hours, Western blot. How it is done:
as §1, §2, §3

Assay [1] concerns the target human Cereblon WT GST-tagged protein (Homo sapiens (Human), UniProt Q96SW2). Put plainly: CRBN-binding affinity, HTRF (CEREBLON BINDING kit). The procedure, abridged:
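HTRF competition readout: compounds compete with a thalidomide-Re conjugate for GST-tagged wild-type human CRBN detected via Eu-labelled anti-GST antibody. Inhibition rate derived relative to protein-free blank wells.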
Background: TR-FRET usually uses a lanthanide donor and a delayed reading to cut background.

In the next assay the target is IKZF3 protein (Homo sapiens (Human), UniProt Q96SW2+Q9UKT9). Put plainly: Western-blot assay of substrate protein degradation in hPBMC, IKZF3. It is filed as cell-based. The note with it: hPBMC cells, compound 500 nM, 24 hours, Western blot. How it is done:
as §1, §2, §3

By IC50 is commonly meant the concentration that gives 50% inhibition. Low values mean greater potency, high ones weaker potency.

Sequence of IKZF1 protein (Q13422 whole entry): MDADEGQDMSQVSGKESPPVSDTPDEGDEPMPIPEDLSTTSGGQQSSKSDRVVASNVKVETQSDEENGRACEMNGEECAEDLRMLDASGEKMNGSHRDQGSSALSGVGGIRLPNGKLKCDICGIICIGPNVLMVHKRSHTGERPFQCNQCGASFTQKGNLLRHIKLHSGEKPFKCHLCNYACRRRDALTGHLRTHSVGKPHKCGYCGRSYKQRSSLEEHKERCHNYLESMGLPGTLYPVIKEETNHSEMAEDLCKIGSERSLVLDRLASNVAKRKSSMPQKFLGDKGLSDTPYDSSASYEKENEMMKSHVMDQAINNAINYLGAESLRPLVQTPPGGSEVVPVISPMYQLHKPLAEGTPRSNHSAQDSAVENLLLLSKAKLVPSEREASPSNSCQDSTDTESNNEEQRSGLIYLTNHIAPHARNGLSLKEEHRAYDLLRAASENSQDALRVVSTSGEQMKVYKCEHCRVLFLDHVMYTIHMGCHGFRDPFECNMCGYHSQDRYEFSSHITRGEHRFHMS
Sequence of IKZF1 protein (Q96SW2 whole entry): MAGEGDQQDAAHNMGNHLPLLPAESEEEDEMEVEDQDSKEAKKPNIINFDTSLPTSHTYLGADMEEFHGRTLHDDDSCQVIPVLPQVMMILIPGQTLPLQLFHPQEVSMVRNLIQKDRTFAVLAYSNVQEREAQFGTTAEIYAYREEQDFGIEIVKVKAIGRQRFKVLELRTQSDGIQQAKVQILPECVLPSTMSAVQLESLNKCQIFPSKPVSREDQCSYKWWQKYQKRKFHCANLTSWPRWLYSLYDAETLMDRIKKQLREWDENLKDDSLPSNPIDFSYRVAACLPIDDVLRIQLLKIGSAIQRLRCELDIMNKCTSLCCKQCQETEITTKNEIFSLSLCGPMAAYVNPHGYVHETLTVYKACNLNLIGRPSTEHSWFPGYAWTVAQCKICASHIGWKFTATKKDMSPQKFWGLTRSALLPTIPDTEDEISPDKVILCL
Sequence of IKZF1 protein (Q16531 whole entry partner): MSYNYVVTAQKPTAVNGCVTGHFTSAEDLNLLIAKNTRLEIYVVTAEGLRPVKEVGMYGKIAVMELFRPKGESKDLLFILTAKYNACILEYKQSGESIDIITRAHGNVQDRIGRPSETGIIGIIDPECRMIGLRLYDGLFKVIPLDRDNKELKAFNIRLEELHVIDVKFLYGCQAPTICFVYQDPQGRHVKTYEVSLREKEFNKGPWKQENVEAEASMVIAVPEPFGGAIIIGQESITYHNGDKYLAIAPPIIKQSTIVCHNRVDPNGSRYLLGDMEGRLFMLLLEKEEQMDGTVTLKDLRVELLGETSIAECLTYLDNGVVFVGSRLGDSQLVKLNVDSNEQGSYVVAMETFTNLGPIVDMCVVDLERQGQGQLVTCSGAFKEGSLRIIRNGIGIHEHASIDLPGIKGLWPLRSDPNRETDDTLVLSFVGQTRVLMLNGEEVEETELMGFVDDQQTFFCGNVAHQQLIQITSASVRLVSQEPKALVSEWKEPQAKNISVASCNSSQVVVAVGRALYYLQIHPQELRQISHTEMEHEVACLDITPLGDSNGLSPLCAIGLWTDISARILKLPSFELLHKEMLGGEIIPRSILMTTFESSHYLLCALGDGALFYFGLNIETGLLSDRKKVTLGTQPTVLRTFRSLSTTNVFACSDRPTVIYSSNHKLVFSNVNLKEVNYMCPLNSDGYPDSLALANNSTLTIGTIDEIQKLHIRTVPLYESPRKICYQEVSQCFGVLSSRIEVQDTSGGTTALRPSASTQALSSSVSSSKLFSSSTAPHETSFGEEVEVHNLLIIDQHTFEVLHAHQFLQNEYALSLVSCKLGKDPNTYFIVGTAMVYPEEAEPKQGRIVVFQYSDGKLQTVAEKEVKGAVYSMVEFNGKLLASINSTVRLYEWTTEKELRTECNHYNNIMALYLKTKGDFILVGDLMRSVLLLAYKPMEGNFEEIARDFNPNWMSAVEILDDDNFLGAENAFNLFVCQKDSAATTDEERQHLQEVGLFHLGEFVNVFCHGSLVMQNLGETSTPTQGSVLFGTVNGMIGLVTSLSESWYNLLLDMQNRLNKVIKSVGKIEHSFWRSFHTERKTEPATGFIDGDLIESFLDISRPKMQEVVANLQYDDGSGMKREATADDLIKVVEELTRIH
Sequence of GSPT1 protein (P15170 whole entry): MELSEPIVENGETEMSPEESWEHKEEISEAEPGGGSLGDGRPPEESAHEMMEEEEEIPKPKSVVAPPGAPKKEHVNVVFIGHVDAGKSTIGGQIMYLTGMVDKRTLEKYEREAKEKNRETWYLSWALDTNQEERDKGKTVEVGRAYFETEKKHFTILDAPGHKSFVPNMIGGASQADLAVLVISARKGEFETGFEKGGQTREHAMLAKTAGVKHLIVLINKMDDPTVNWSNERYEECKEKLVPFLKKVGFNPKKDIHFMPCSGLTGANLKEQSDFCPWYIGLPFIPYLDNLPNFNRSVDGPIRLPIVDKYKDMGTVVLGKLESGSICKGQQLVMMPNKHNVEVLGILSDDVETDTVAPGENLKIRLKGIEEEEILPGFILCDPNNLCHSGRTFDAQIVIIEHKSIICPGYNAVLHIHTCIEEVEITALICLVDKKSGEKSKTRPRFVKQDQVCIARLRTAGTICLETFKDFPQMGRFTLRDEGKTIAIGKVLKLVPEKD
Sequence of GSPT1 protein (Q96SW2 whole entry): as the sequence (Q96SW2 whole entry) above
Sequence of GSPT1 protein (Q16531 whole entry partner): as the sequence (Q16531 whole entry partner) above
Sequence of human Cereblon WT GST-tagged protein (Q96SW2 whole entry): as the sequence (Q96SW2 whole entry) above
Sequence of IKZF3 protein (Q9UKT9 whole entry): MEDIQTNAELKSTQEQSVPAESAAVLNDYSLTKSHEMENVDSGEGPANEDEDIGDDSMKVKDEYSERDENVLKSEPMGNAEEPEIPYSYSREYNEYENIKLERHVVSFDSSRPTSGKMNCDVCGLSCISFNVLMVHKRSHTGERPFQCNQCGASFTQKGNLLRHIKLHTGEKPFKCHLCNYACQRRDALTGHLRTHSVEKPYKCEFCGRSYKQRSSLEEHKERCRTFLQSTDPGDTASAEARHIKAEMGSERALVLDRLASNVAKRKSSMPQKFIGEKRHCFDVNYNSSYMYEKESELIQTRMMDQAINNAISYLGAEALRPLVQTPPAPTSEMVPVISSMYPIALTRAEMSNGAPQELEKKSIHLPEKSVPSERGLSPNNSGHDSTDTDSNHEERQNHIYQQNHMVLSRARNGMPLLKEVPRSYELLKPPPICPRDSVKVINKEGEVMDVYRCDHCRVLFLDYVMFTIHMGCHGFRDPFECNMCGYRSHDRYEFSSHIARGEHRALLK
Sequence of IKZF3 protein (Q96SW2 whole entry): as the sequence (Q96SW2 whole entry) above
Sequence of IKZF3 protein (Q16531 whole entry partner): as the sequence (Q16531 whole entry partner) above

As to `CC1(C)CCC(C(=O)N2CC3CCC2CN3Cc2ccc3c(c2)CN(C2CCC(=O)NC2=O)C3=O)=C(c2ccc(F)cc2)C1` (stereo not drawn) [GT-05402, 3-(5-((5-(4′-fluoro-5,5-dimethyl-3,4,5,6-tetrahydro-[1,1′-biphenyl]-2-carbonyl)-2,5-diazabicyclo[2.2.2]octan-2-yl)methyl)-1-oxoisoindolin-2-yl)piperidine-2,6-dione], at IKZF1 protein, the “residual substrate protein level, IKZF1” value is listed as “B (B represents a residual substrate protein level of >50%)”. Moreover, on GSPT1 protein, the “residual substrate protein level, GSPT1” value was “B (B represents a residual substrate protein level of >50%)”. This molecule displayed an IC50 in assay [1] of 430 nM. Moreover, the “residual substrate protein level, IKZF3” value on IKZF3 protein was “A (A represents a residual substrate protein level of <50%)”.
In the case of `CC1(C)CCC(C(=O)N2CCC3(CC2)CN(Cc2ccc4c(c2)CN(C2CCC(=O)NC2=O)C4=O)C3)=C(c2ccc(F)cc2)C1` (stereo not drawn) [GT-05404, 3-(5-((7-(4′-fluoro-5,5-dimethyl-3,4,5,6-tetrahydro-[1,1′-biphenyl]-2-carbonyl)-2,7-diazaspiro[3.5]nonan-2-yl)methyl)-1-oxoisoindolin-2-yl)piperidine-2,6-dione], the “residual substrate protein level, IKZF1” value at IKZF1 protein is “B (B represents a residual substrate protein level of >50%)”. Moreover, at GSPT1 protein, the “residual substrate protein level, GSPT1” value is given as “B (B represents a residual substrate protein level of >50%)”. The IC50 in assay [1] stood at 490 nM. Besides, the “residual substrate protein level, IKZF3” value on IKZF3 protein was “A (A represents a residual substrate protein level of <50%)”.
As to `CC1(C)CCC(C(=O)N2CC(=Cc3ccc4c(c3)CN(C3CCC(=O)NC3=O)C4=O)C2)=C(c2ccc(Cl)cc2)C1` (stereo not drawn) [GT-05420, 3-(5-((1-(4′-chloro-5,5-dimethyl-3,4,5,6-tetrahydro-[1,1′-biphenyl]-2-carbonyl)azetidin-3-ylidene)methyl)-1-oxoisoindolin-2-yl)piperidine-2,6-dione], the “residual substrate protein level, IKZF1” value on IKZF1 protein is listed as “B (B represents a residual substrate protein level of >50%)”. Further, the “residual substrate protein level, GSPT1” value at GSPT1 protein is “A (A represents a residual substrate protein level of <50%)”. Also, the IC50 in assay [1] was determined as 730 nM. For the same molecule, the “residual substrate protein level, IKZF3” value on IKZF3 protein was “B (B represents a residual substrate protein level of >50%)”.
Consider `CC1(C)CCC(C(=O)N2CC(O)(C(O)c3ccc4c(c3)CN(C3CCC(=O)NC3=O)C4=O)C2)=C(c2ccc(Cl)cc2)C1` (stereo not drawn) [GT-05426, 3-(5-((1-(4′-chloro-5,5-dimethyl-3,4,5,6-tetrahydro-[1,1′-biphenyl]-2-carbonyl)-3-hydroxyazetidin-3-yl)(hydroxy)methyl)-1-oxoisoindolin-2-yl)piperidine-2,6-dione], for which the “residual substrate protein level, IKZF1” value on IKZF1 protein was “B (B represents a residual substrate protein level of >50%)”. The “residual substrate protein level, GSPT1” value on GSPT1 protein is given as “A (A represents a residual substrate protein level of <50%)”. This molecule gave an IC50 in assay [1] of 620 nM. For the same molecule, the “residual substrate protein level, IKZF3” value on IKZF3 protein is recorded as “A (A represents a residual substrate protein level of <50%)”.
As for `O=C1CCC(N2Cc3cc(C(=O)N4C5CC4CN(C(=O)C4=C(c6ccc(F)cc6)CCCC4)C5)ccc3C2=O)C(=O)N1` (stereo not drawn) [GT-05449, 3-(5-(3-(4′-fluoro-3,4,5,6-tetrahydro-[1,1′-biphenyl]-2-carbonyl)-3,6-diazabicyclo[3.1.1]heptane-6-carbonyl)-1-oxoisoindolin-2-yl)piperidine-2,6-dione], on IKZF1 protein, the “residual substrate protein level, IKZF1” value was “B (B represents a residual substrate protein level of >50%)”. Besides, the “residual substrate protein level, GSPT1” value on GSPT1 protein is given as “A (A represents a residual substrate protein level of <50%)”. Also, in assay [1], the 50% inhibitory concentration (IC50) worked out at 1690 nM. Besides, at IKZF3 protein, the “residual substrate protein level, IKZF3” value was “B (B represents a residual substrate protein level of >50%)”.
With `CC1(C)CCC(CN2CC3CC(C2)N3C(=O)c2ccc3c(c2)CN(C2CCC(=O)NC2=O)C3=O)=C(c2ccc(F)cc2)C1` (stereo not drawn) [GT-05450, 3-(5-(3-((4′-fluoro-5,5-dimethyl-3,4,5,6-tetrahydro-[1,1′-biphenyl]-2-yl)methyl)-3,6-diazabicyclo[3.1.1]heptane-6-carbonyl)-1-oxoisoindolin-2-yl)piperidine-2,6-dione], the “residual substrate protein level, IKZF1” value at IKZF1 protein is recorded as “B (B represents a residual substrate protein level of >50%)”. Besides, the “residual substrate protein level, GSPT1” value at GSPT1 protein is “A (A represents a residual substrate protein level of <50%)”. In assay [1], this molecule had an IC50 of 890 nM. The “residual substrate protein level, IKZF3” value on IKZF3 protein is given as “B (B represents a residual substrate protein level of >50%)”.
For `O=C1CCC(N2Cc3cc(C(=O)N4CCN(Cc5ccccc5-c5ccc(Cl)cc5)CC4)ccc3C2=O)C(=O)N1` (stereo not drawn) [GT-05455, 3-(5-(4-((4′-chloro-[1,1′-biphenyl]-2-yl)methyl)piperazine-1-carbonyl)-1-oxoisoindolin-2-yl)piperidine-2,6-dione], the “residual substrate protein level, IKZF1” value at IKZF1 protein was “B (B represents a residual substrate protein level of >50%)”. Further, the “residual substrate protein level, GSPT1” value at GSPT1 protein is reported as “A (A represents a residual substrate protein level of <50%)”. The molecule further returned an IC50 in assay [1] of 1070 nM. Also, the “residual substrate protein level, IKZF3” value at IKZF3 protein was “B (B represents a residual substrate protein level of >50%)”.
As for `O=C1CCC(N2Cc3c(ccc(CN4CCN(C(=O)C5=C(c6ccc(F)cc6)CCCC5)CC4)c3F)C2=O)C(=O)N1` (stereo not drawn) [GT-05472, 3-(4-fluoro-5-((4-(4′-fluoro-3,4,5,6-tetrahydro-[1,1′-biphenyl]-2-carbonyl)piperazin-1-yl)methyl)-1-oxoisoindolin-2-yl)piperidine-2,6-dione], the “residual substrate protein level, IKZF1” value on IKZF1 protein is listed as “B (B represents a residual substrate protein level of >50%)”. Further, the “residual substrate protein level, GSPT1” value at GSPT1 protein was “A (A represents a residual substrate protein level of <50%)”. The IC50 in assay [1] worked out at 1120 nM. At IKZF3 protein, the “residual substrate protein level, IKZF3” value was “B (B represents a residual substrate protein level of >50%)”.
Consider `O=C1CCC(N2Cc3cc(CN4CCN(C(=O)C5=C(c6ccc(F)cc6)CCCC5)CC4)c(F)cc3C2=O)C(=O)N1` (stereo not drawn) [GT-05473, 3-(6-fluoro-5-((4-(4′-fluoro-3,4,5,6-tetrahydro-[1,1′-biphenyl]-2-carbonyl)piperazin-1-yl)methyl)-1-oxoisoindolin-2-yl)piperidine-2,6-dione], for which the “residual substrate protein level, IKZF1” value on IKZF1 protein was “B (B represents a residual substrate protein level of >50%)”. Further, on GSPT1 protein, the “residual substrate protein level, GSPT1” value is “A (A represents a residual substrate protein level of <50%)”. The molecule further registered a half-inhibitory concentration (IC50) in assay [1] of 1160 nM. Moreover, the “residual substrate protein level, IKZF3” value on IKZF3 protein is given as “B (B represents a residual substrate protein level of >50%)”.
As to `CC1(C)CCC(C(=O)N2CC(O)(C(O)c3ccc4c(c3)CN(C3CCC(=O)NC3=O)C4=O)C2)=C(c2ccc(F)cc2)C1` (stereo not drawn) [GT-05490, 3-(5-((1-(4′-fluoro-5,5-dimethyl-3,4,5,6-tetrahydro-[1,1′-biphenyl]-2-carbonyl)-3-hydroxyazetidin-3-yl)(hydroxy)methyl)-1-oxoisoindolin-2-yl)piperidine-2,6-dione], on IKZF1 protein, the “residual substrate protein level, IKZF1” value is reported as “A (A represents a residual substrate protein level of <50%)”. Moreover, at GSPT1 protein, the “residual substrate protein level, GSPT1” value is “B (B represents a residual substrate protein level of >50%)”. In assay [1], this molecule returned a half-inhibitory concentration (IC50) of 580 nM. In addition, the “residual substrate protein level, IKZF3” value at IKZF3 protein was “B (B represents a residual substrate protein level of >50%)”.
Regarding `CC1(C)CCC(CN2CCCN(Cc3ccc4c(c3)CN(C3CCC(=O)NC3=O)C4=O)CC2)=C(c2ccc(F)cc2)C1` (stereo not drawn) [GT-05504, 3-(5-((4-((4′-fluoro-5,5-dimethyl-3,4,5,6-tetrahydro-[1,1′-biphenyl]-2-yl)methyl)-1,4-diazepan-1-yl)methyl)-1-oxoisoindolin-2-yl)piperidine-2,6-dione], the “residual substrate protein level, IKZF1” value at IKZF1 protein is listed as “A (A represents a residual substrate protein level of <50%)”. In addition, the “residual substrate protein level, GSPT1” value at GSPT1 protein was “B (B represents a residual substrate protein level of >50%)”. For the same molecule, the IC50 in assay [1] was found to be 730 nM. The “residual substrate protein level, IKZF3” value on IKZF3 protein is recorded as “A (A represents a residual substrate protein level of <50%)”.
On to `CC1(C)CCC(CN2CC3CCC2CN3Cc2ccc3c(c2)CN(C2CCC(=O)NC2=O)C3=O)=C(c2ccc(F)cc2)C1` (stereo not drawn) [GT-05512, 3-(5-((5-((4′-fluoro-5,5-dimethyl-3,4,5,6-tetrahydro-[1,1′-biphenyl]-2-yl)methyl)-2,5-diazabicyclo[2.2.2]octan-2-yl)methyl)-1-oxoisoindolin-2-yl)piperidine-2,6-dione], for which, on IKZF1 protein, the “residual substrate protein level, IKZF1” value is reported as “B (B represents a residual substrate protein level of >50%)”. Further, on GSPT1 protein, the “residual substrate protein level, GSPT1” value was “A (A represents a residual substrate protein level of <50%)”. Also, the IC50 in assay [1] was determined as 570 nM. Further, the “residual substrate protein level, IKZF3” value on IKZF3 protein is recorded as “B (B represents a residual substrate protein level of >50%)”.

Source of the values: patent US20260028326A1, “COMPOUND BASED ON ISOINDOLINE-SUBSTITUTED GLUTARIMIDE BACKBONE AND USE THEREOF” (GLUETACS THERAPEUTICS (SHANGHAI) CO., LTD., priority 2022, published 2026).
